Our source for the IC50 values is patent publication US20170320870A1 (Medical Research Council Technology, priority 2009, published 2017).

pIC50: −log10 of the molar value.

T1 sequence (Q5S007 970-2527): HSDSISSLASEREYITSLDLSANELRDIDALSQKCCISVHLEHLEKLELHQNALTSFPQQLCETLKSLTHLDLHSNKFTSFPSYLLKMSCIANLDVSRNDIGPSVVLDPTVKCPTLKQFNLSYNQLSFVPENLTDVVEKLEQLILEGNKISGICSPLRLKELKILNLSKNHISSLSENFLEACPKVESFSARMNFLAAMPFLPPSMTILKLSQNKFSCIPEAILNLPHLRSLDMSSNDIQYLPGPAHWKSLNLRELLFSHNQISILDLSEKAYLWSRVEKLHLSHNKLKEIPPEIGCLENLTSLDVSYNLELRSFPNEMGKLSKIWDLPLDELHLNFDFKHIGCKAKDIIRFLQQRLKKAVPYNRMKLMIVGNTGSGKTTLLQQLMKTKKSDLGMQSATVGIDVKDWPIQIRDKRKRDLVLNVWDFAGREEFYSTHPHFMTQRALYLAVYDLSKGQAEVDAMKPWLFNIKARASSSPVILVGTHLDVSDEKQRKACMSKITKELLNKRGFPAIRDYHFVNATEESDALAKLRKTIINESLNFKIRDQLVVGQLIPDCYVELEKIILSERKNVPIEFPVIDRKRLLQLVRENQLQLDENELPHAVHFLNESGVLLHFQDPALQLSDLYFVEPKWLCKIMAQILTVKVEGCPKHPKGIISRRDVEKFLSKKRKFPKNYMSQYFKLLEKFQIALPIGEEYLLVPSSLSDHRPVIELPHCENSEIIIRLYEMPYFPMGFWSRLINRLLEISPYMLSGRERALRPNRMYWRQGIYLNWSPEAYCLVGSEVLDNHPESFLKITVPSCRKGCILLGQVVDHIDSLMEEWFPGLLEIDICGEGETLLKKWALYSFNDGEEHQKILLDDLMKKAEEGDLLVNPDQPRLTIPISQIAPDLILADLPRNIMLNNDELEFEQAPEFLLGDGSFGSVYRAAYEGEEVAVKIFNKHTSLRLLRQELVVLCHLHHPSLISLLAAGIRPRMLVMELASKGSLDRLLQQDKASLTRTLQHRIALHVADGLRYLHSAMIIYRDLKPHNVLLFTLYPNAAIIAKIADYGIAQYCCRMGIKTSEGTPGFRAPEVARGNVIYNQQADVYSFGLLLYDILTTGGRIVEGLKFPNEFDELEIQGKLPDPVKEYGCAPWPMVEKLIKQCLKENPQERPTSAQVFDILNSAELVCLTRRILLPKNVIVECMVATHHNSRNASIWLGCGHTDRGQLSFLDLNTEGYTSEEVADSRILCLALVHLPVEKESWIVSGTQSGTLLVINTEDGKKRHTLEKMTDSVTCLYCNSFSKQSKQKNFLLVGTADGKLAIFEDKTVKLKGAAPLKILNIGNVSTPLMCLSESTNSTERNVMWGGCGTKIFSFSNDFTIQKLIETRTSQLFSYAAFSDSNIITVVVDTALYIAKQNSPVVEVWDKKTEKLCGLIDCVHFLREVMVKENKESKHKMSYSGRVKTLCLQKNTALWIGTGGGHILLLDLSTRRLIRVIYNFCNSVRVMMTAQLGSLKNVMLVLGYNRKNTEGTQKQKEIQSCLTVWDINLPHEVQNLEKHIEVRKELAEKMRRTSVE

The test addresses T1, LRRK2 wild type (recombinant human, catalytic domain amino acids 970-2527, GST-tagged) (Homo sapiens, UniProt Q5S007).
T1 construct: The wild type used was recombinant human, catalytic domain (amino acids 970-2527) GST-tagged, expressed in insect cells; GST; purchased Invitrogen Corporation PV4873; host or cells: insect cells
The experiment in a line: LRRK2 wild type protein kinase assay ([γ-33P] ATP, peptide substrate […]), IC50. The following applies: LRRK2 (variant not given); read-out: Potency score, LRRK2 IC50. The test is classed as biochemical. The method, boiled down: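 Insect-cell-expressed enzyme (~5 nM), no activation, incubated 180 min at ~21 °C in 50 mM Tris-HCl pH 7.5, 0.1 mM EGTA, 1 mM DTT, 10 mM MgCl2 with 100 μM peptide substrate and [γ-33P]ATP. Reaction stopped with orthophosphoric acid, captured on P81 filters and counted; IC50 from 10 concentrations in duplicate.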
For orientation: pIC50 means the negative decadic logarithm of the IC50, by convention in mol/L. With `O=C(Nc1ccc(CCc2n[nH]c3ccnc(NC4CCCCC4)c23)cc1)c1cccc(F)c1` [Example 275, N-{4-[2-(4-Cyclohexylamino-1H-pyrazolo[4,3-c]pyridin-3-yl)-ethyl]-phenyl}-3-fluoro-benzamide], the pIC50 is over 7.00. Regarding `O=C(CCc1n[nH]c2ccnc(NC3CCCCC3)c12)N1CCCCC1` [Example 169, 3-(4-Cyclohexylamino-1H-pyrazolo[4,3-c]pyridin-3-yl)-1-piperidin-1-yl-propan-1-one], the pIC50 is 6.00 to 7.00. Take `c1ccc(CCc2n[nH]c3ccnc(NC4CCCCC4)c23)nc1` [Example 214, Cyclohexyl-[3-(2-pyridin-2-yl-ethyl)-1H-pyrazolo[4,3-c]pyridin-4-yl]-amine]: the negative-log IC50 (pIC50) is over 7.00.

Consider `Cc1n[nH]c2ccnc(NC3CCCCC3)c12` [Example 3, Cyclohexyl-(3-methyl-1H-pyrazolo[4,3-c]pyridin-4-yl)-amine], for which the pIC50 was 6.00 to 7.00. In the case of `Cc1n[nH]c2ccnc(-c3ccc(C#N)cc3)c12` [Example 54, 4-(3-Methyl-1H-pyrazolo[4,3-c]pyridin-4-yl)-benzonitrile], the negative-log IC50 (pIC50) is 5.00 to 6.00.

On to `Cc1n[nH]c2ccnc(NCCC(C)C)c12` [Example 343, (3-Methyl-butyl)-(3-methyl-1H-pyrazolo[4,3-c]pyridin-4-yl)-amine], for which the pIC50 was 5.00 to 6.00. Turning to `CN1CCN(C(=O)CCc2n[nH]c3ccnc(NC4CCCCC4)c23)CC1` [Example 177, 3-(4-Cyclohexylamino-1H-pyrazolo[4,3-c]pyridin-3-yl)-1-(4-methyl-piperazin-1-yl)-propan-1-one], the pIC50 was 6.00 to 7.00. For the compound `O=C(c1cccc(-c2n[nH]c3ccnc(NC4CCCCC4)c23)c1)N1CCOCC1` [Example 153, [3-(4-Cyclohexylamino-1H-pyrazolo[4,3-c]pyridin-3-yl)-phenyl]-morpholin-4-yl-methanone], the pIC50 was 5.00 to 6.00. On to `O=C(CCc1n[nH]c2ccnc(NC3CCCCC3)c12)N1CCCC(F)(F)C1` [Example 191, 3-(4-Cyclohexylamino-1H-pyrazolo[4,3-c]pyridin-3-yl)-1-(3,3-difluoro-piperidin-1-yl)-propan-1-one], for which the pIC50 was over 7.00.

As for `Cc1n[nH]c2ccnc(OCCC(C)C)c12` [Example 282, 3-Methyl-4-(3-methyl-butoxy)-1H-pyrazolo[4,3-c] pyridine], the pIC50 is 6.00 to 7.00. Turning to `O=C(CCc1n[nH]c2ccnc(NC3CCCCC3)c12)N1CCOCC1` [Example 175, 3-(4-Cyclohexylamino-1H-pyrazolo[4,3-c]pyridin-3-yl)-1-morpholin-4-yl-propan-1-one], the pIC50 was 6.00 to 7.00. For the compound `Cc1n[nH]c2ccnc(N[C@H](CO)C(C)C)c12` [Example 28, (S)-3-Methyl-2-(3-methyl-1H-pyrazolo[4,3-c]pyridin-4-ylamino)-butan-1-ol], the pIC50 is 5.00 to 6.00.

For the compound `O=C(CCc1n[nH]c2ccnc(NC3CCCCC3)c12)N1CCCC(Oc2cccnc2)C1` (stereo not shown) [Example 195, 3-(4-Cyclohexylamino-1H-pyrazolo[4,3-c]pyridin-3-yl)-1-[3-(pyridin-3-yloxy)-piperidin-1-yl]-propan-1-one], the pIC50 was 6.00 to 7.00. On to `Cc1n[nH]c2ccnc(NCC3CCOCC3)c12` [Example 17], for which the pIC50 is 5.00 to 6.00. Consider `Cc1n[nH]c2ccnc(NC3CCN(Cc4ccccc4)CC3)c12` [Example 98, (1-Benzyl-piperidin-4-yl)-(3-methyl-1H-pyrazolo[4,3-c]pyridin-4-yl)-amine], for which the pIC50 is 5.00 to 6.00. The same measure for `Cc1n[nH]c2ccnc(OC3CCOCC3)c12` [Example 118, 3-Methyl-4-(tetrahydro-pyran-4-yloxy)-1H-pyrazolo[4,3-c]pyridine]: 6.00 to 7.00; for `Cc1n[nH]c2ccnc(Nc3ccc(N4CCOCC4)cc3)c12` [Example 85, (3-Methyl-1H-pyrazolo[4,3-c]pyridin-4-yl)-(4-morpholin-4-yl-phenyl)-amine]: 6.00 to 7.00.

In the case of `Cc1n[nH]c2ccnc(NCc3ccccc3Cl)c12` [Example 315, (2-Chloro-benzyl)-(3-methyl-1H-pyrazolo[4,3-c]pyridin-4-yl)-amine], the negative logarithm of the IC50 (pIC50) is 6.00 to 7.00. `CC(=O)Nc1ccc(C(=O)Nc2ccc(CCc3n[nH]c4ccnc(NC5CCCCC5)c34)cc2)cc1` [Example 264, 4-Acetylamino-N-{4-[2-(4-cyclohexylamino-1H-pyrazolo[4,3-c]pyridin-3-yl)-ethyl]-phenyl}-benzamide]: the negative logarithm of the IC50 (pIC50) is over 7.00. The same measure for `Cc1n[nH]c2ccnc(OCC3CC3)c12` [Example 123, 4-Cyclopropyl-methoxy-3-methyl-1H-pyrazolo [4,3-c]pyridine]: 6.00 to 7.00.

For the compound `N#Cc1cccc(C(=O)Nc2ccc(CCc3n[nH]c4ccnc(NC5CCCCC5)c34)cc2)c1` [Example 276, 3-Cyano-N-{4-[2-(4-cyclohexylamino-1H-pyrazolo[4,3-c]pyridin-3-yl)-ethyl]-phenyl}-benzamide], the pIC50 was over 7.00. Take `Cc1n[nH]c2ccnc(N(C)CC(C)C)c12` [Example 91, Isobutyl-methyl-(3-methyl-1H-pyrazolo[4,3-cc]pyridin-4-yl)-amine]: the pIC50 was 5.00 to 6.00. As for `Cc1n[nH]c2ccnc(Nc3cccc(C(N)=O)c3)c12` [Example 76, 3-(3-Methyl-1H-pyrazolo[4,3-c]pyridin-4-ylamino)-benzamide], the negative-log IC50 (pIC50) was 6.00 to 7.00. The same measure for `Cc1n[nH]c2ccnc(Nc3ccc(F)c(Cl)c3)c12` [Example 307, (3-Chloro-4-fluoro-phenyl)-(3-methyl-1H-pyrazolo[4,3-c]pyridin-4-yl)-amine]: 6.00 to 7.00. `Cc1noc(C2CCCN(C(=O)CCc3n[nH]c4ccnc(NC5CCCCC5)c34)C2)n1` (stereo not shown) [Example 197, 3-(4-Cyclohexylamino-1H-pyrazolo[4,3-c]pyridin-3-yl)-1-[3-(3-methyl-1,2,4-oxadiazol-5-yl)-piperidin-1-yl]-propan-1-one]: the pIC50 was 6.00 to 7.00.

Turning to `c1cc2[nH]nc(-c3cnn(CCN4CCOCC4)c3)c2c(NC2CCCCC2)n1` [Example 233, Cyclohexyl-{3-[1-(2-morpholin-4-yl-ethyl)-1H-pyrazol-4-yl]-1H-pyrazolo[4,3-c]pyridin-4-yl}-amine], the pIC50 was 6.00 to 7.00. Consider `COc1ccccc1NC(=O)c1ccc(Nc2nccc3[nH]nc(C)c23)cc1` [Example 111, N-(2-Methoxy-phenyl)-4-(3-methyl-1H-pyrazolo[4,3-c]pyridin-4-ylamino)-benzamide], for which the pIC50 is 5.00 to 6.00. For `Cc1n[nH]c2ccnc(OC3CCN(C(C)C)CC3)c12` [Example 119, 4-(1-Isopropyl-piperidin-4-yloxy)-3-methyl-1H-pyrazolo[4,3-c]pyridine], the pIC50 was 5.00 to 6.00. Regarding `Fc1cccc(Nc2nccc3[nH]ncc23)c1` [Example 132, (3-Fluoro-phenyl)-(1H-pyrazolo[4,3-c]pyridin-4-yl)-amine], the pIC50 was 6.00 to 7.00.

As to `Cc1n[nH]c2ccnc(Cc3ccccc3)c12` [Example 125, 4-Benzyl-3-methyl-1H-pyrazolo[4,3-c]pyridine], the pIC50 is 5.00 to 6.00. With `Cc1n[nH]c2ccnc(N3CCN(C)CC3)c12` [Example 5, 3-Methyl-4-(4-methyl-piperazin-1-yl)-1H-pyrazolo[4,3-c]pyridine], the pIC50 was 5.00 to 6.00. The same measure for `Cc1n[nH]c2ccnc(NC3CCC(F)(F)CC3)c12` [Example 20, (4,4-Difluoro-cyclohexyl)-(3-methyl-1H-pyrazolo[4,3-c]pyridin-4-yl)-amine]: 6.00 to 7.00; for `COCCC(=O)N1CCC(Nc2nccc3[nH]nc(C)c23)CC1` [Example 102, 3-Methoxy-1-[4-(3-methyl-1H-pyrazolo[4,3-c]pyridin-4-ylamino)-piperidin-1-yl]-propan-1-one]: 5.00 to 6.00; for `Cc1n[nH]c2ccnc(N(C)Cc3ccccc3)c12` [Example 95, Benzyl-methyl-(3-methyl-1H-pyrazolo[4,3-c]pyridin-4-yl)-amine]: 5.00 to 6.00. As to `Cc1n[nH]c2ccnc(CC3CCCCC3)c12` [Example 126, 4-Cyclohexylmethyl-3-methyl-1H-pyrazolo[4,3-c]pyridine], the pIC50 was 5.00 to 6.00.

In the case of `Cc1n[nH]c2ccnc(NCCCn3ccnc3)c12` [Example 15, (3-Imidazol-1-yl-propyl)-(3-methyl-1H-pyrazolo[4,3-c]pyridin-4-yl)-amine], the pIC50 was 6.00 to 7.00. The same measure for `Cc1n[nH]c2ccnc(Nc3cccc(NS(C)(=O)=O)c3)c12` [Example 73, N-[3-(3-Methyl-1H-pyrazolo[4,3-c]pyridin-4-ylamino)-phenyl]-methanesulfonamide]: 6.00 to 7.00; for `Cc1n[nH]c2ccnc(OC3CCCCCC3)c12` [Example 283, 4-Cycloheptyloxy-3-methyl-1H-pyrazolo[4,3-c] pyridine]: over 7.00; for `Cc1n[nH]c2ccnc(OC3CCCCC3)c12` [Example 114, 4-Cyclohexyloxy-3-methyl-1H-pyrazolo[4,3-c]pyridine]: over 7.00. With `O=C(CCc1n[nH]c2ccnc(NC3CCCCC3)c12)N1CCOC(c2ccccc2)C1` (stereo not shown) [Example 205, 3-(4-Cyclohexylamino-1H-pyrazolo[4,3-c]pyridin-3-yl)-1-(2-phenyl-morpholin-4-yl)-propan-1-one], the pIC50 was 6.00 to 7.00. Take `Cc1n[nH]c2ccnc(N3CCc4ccccc4C3)c12` [Example 12, 2-(3-Methyl-1H-pyrazolo[4,3-c]pyridin-4-yl)-1,2,3,4-tetrahydro-isoquinoline]: the pIC50 was 5.00 to 6.00. As to `Cc1n[nH]c2ccnc(Nc3ccc4c(c3)CN(C)CC4)c12` [Example 75, (3-Methyl-1H-pyrazolo[4,3-c]pyridin-4-yl)-(2-methyl-1,2,3,4-tetrahydro-isoquinolin-7-yl)-amine], the pIC50 is 6.00 to 7.00. In the case of `Cc1n[nH]c2ccnc(-c3cnccn3)c12` [Example 131, 3-Methyl-4-pyrazin-2-yl-1H-pyrazolo[4,3-cc]pyridine], the pIC50 is 5.00 to 6.00.
